# How the values were obtained:
# [1] = CIPN-reversal study: body weight, tolerability, mortality; format: in vivo; conditions: rat, in vivo
# Experimental: Rats were housed 2-3 per cage under similar environmental conditions as nude mice in the interference study.
# (§1) Wistar female rats (n=52) (Envigo, Correzzano, Italy) at 10-11 weeks of age were utilized. The study was divided into 2 phases of 4 weeks each. […] Body weight was measured periodically during phase 1 from baseline (day 1) to day 28. At baseline and conclusion of phase 1 (day 28), nerve conduction velocity (NCV) was performed on caudal and sciatic nerves and Dynamic Aesthesiometer Test (DAT) measured mechanical threshold (MT) of the hind paw. […] Body weight was measured periodically from baseline (day 28) to day 56 (termination). NCV and MT were measured in all 4 groups at baseline and on day 35 and 56. […] At termination, sciatic nerves were obtained for β-tubulin polymerization and skin samples were procured for intraepidermal nerve fiber (IENF) density and histopathology.
# [2] = system: sciatic nerves (BTZ-induced CIPN); test: CIPN-reversal study: sciatic nerve conduction velocity; format: in vivo, Wistar rat
# Experimental: as §1
# (§2) NCV (meters/second) was obtained from caudal and sciatic nerves with an electromyography tool (Myto 2, ABN Neuro, Firenze, Italy). Caudal NCV was measured by placement of recording needle electrodes distally in the tail with stimulating needle electrodes 5 cm and 10 cm proximal to recording point. Peak latencies of potentials recorded at the 2 sites after nerve stimulation were determined and NCV was calculated. Sciatic NCV was determined by placement of needle recording electrodes near ankle bone and stimulating electrodes close to thigh. Peak latencies were recorded similar to caudal nerve and NCV was calculated. NCV was performed under standard conditions in a temperature-controlled facility (22±2° C.) and rats were under isoflurane anesthesia with monitoring of vital signs.
# [3] = system: RPMI-8226 human myeloma xenografts; test: In vivo BTZ and combination (BTZ and CX-8998) anti-tumor (interference) study, tumor volume; parameters: species or system athymic nude mouse
# From the text: (§3) Care and husbandry of mice complied with USDA (U.S. Department of Agriculture) Animal Welfare Act and START IACUC (Institutional Animal Care and Use Committee) regulations. The protocol was reviewed and approved by START IACUC. Mice were individually housed in Sealsafe® Plus ventilated cages (Techniplast, West Chester, Pa., USA) and fed with Teklad 2919 (Envigo, Somerset, N.J., USA), irradiated, 19% protein, 9% fat and 4% fiber mouse chow. Mice were maintained under controlled environmental conditions (22+/−2° C. temperature, 55+/−10% relative humidity and 12-hour light/dark cycle (7 a.m.-7 p.m.).
# (§4) South Texas Accelerated Research Therapeutics (START) (San Antonio, Tex., USA) conducted this study. […] The 30 mg/kg dose was tolerated in preclinical safety studies and anticipated to result in exposures in excess of the therapeutic range for 28 days. Body weight, TV and animal observations were collected twice per week to day 18 (termination) for vehicle control mice and twice per week to day 28 (termination) for each of the other 3 groups. Mean±SD body weight and TV were analyzed with Kruskal-Wallis and Dunn multiple comparison test at day 18 and with Mann Whitney test at day 28 with statistical significance at p<0.05.
# [4] = system: hind paw mechanical allodynia (BTZ-induced CIPN); test: CIPN-reversal study: Dynamic Aesthesiometer Test, mechanical threshold; format: in vivo, Wistar rat
# Experimental: as §1
# MT was assessed with the DAT device (Model 37450, Ugo Basile Biological Instruments, Comerio, Italy). After acclimation, a servo-controlled pointed metallic filament (0.5 mm diameter) was placed on plantar surface of the hind paw and exerted a progressive punctate pressure up to 50 grams within 20 seconds. The pressure elicited a voluntary hind paw withdrawal response that was recorded and represented MT index. MT was collected alternatively on each side every 2 minutes on 3 occasions to yield a mean value. Mean MT values represented maximum pressure (grams) tolerated by each rat. Exposure of each animal to mechanical stimulus was limited to 30 seconds.
# [5] = system: caudal nerves (BTZ-induced CIPN); test: CIPN-reversal study: caudal nerve conduction velocity; format: in vivo, Wistar rat
# Experimental: as §1, §2
# [6] = In vivo anti-tumor (interference) study: body weight; parameters: species or system athymic nude mouse; conditions: 1 mg/kg BTZ alone iv twice weekly, 28 days
# From the text: as §3, §4
# [7] = system: intraepidermal nerve fibers (BTZ-induced CIPN); test: IENF density and histopathology of plantar glabrous skin; format: in vivo, Wistar rat
# Experimental: as §1
# At day 56, animals were euthanized by CO2 inhalation and tissue samples were procured from 4 rats per group. Right sciatic nerve was frozen in liquid nitrogen for β-tubulin polymerization assay and plantar glabrous skin samples were collected for IENF density.
# Plantar glabrous skin samples (5 mm) from hind paws were fixed in 2% PLP (paraformaldehyde-lysine-sodium periodate) for 24 hours at 4° C. and cryoprotected overnight. Samples were serially cut with a cryostat to yield 20 μm sections. Three sections from each footpad were randomly selected and immunostained with rabbit polyclonal anti-protein gene product 9.5 (PGP 9.5; GeneTex, Irvine, Calif., USA) in combination with biotinylated anti-rabbit IgG and Vector SG substrate kit peroxidase (Vector Laboratories, Burlingame, Calif.) using a free-floating protocol. A blinded observer counted total number of immune-positive IENF in each section under light microscopy at high magnification with a microscope video camera. Individual fibers were counted that crossed dermal-epidermal interface. Secondary branches within epidermis were excluded. Length of epidermis was measured to generate linear density of IENF/millimeter as described elsewhere (Canta et al., 2016 Neurobiol Aging 45:136-148).
smiles,measurement,setting,value
"CC(C)C[C@H](NC(=O)[C@H](Cc1ccccc1)NC(=O)c1cnccn1)B(O)O [BTZ, bortezomib, reference compound]",body weight change,[1],not significantly different
same,tolerability,[1],well tolerated
same,sciatic NCV,[2]; BTZ vs control at week 5,numerically less than control but the difference was not statistically significant
same,sciatic NCV,"[2]; BTZ vs control at weeks 4 and 8 (p<0.01, p<0.05)",significantly reduced
same,"NCV OF SCIATIC NERVE (8 weeks), Difference in rank sum (Dunn's Multiple Comparison Test)","[2]; CTRL vs BTZ, P < 0.05 *",22.10
same,"NCV OF SCIATIC NERVE (5 weeks), Difference in rank sum (Dunn's Multiple Comparison Test)","[2]; CTRL vs BTZ, P > 0.05 ns",2.250
same,"TUMOR GROWTH DAY 18, Difference in rank sum (Dunn's Multiple Comparison Test)","[3]; Vehicle Control vs BTZ, P < 0.001 ***",13.13
same,tumor volume (TV),"[3]; day 18, BTZ alone 1 mg/kg vs vehicle control, p<0.001",significantly reduced TV
same,tumor volume (TV) trend,"[3]; day 18 through day 28, BTZ alone",tended to increase
same,"DYNAMIC TEST 8 WEEKS, Difference in rank sum (Dunn's Multiple Comparison Test)","[4]; CTRL vs BTZ, P < 0.001 ***",23.19
same,"DYNAMIC TEST 5 WEEKS, Difference in rank sum (Dunn's Multiple Comparison Test)","[4]; CTRL vs BTZ, P < 0.05 *",17.24
same,mechanical threshold (MT) in hind paws,"[4]; week 4, BTZ vs control, p<0.0001",significantly reduced
same,caudal NCV,"[5]; BTZ vs control at weeks 4, 5 and 8 (p<0.01, p<0.05, p<0.001)",significantly reduced
same,"NCV OF CAUDAL NERVE (8 weeks), Difference in rank sum (Dunn's Multiple Comparison Test)","[5]; CTRL vs BTZ, P < 0.001 ***",37.00
same,"NCV OF CAUDAL NERVE (5 weeks), Difference in rank sum (Dunn's Multiple Comparison Test)","[5]; CTRL vs BTZ, P < 0.05 *",15.75
same,body weight,[6],transient body weight loss during first two weeks of treatment and no weight gain at day 18 and 28
same,IENF density (number of fibers per millimeter),"[7]; BTZ alone vs control, p<0.001",significantly decreased
same,"IENF DENSITY, Difference in rank sum (Dunn's Multiple Comparison Test)","[7]; CTRL vs BTZ, week 8, P < 0.001 ***",28.99

# Source: patent US20220354834A1, “METHODS AND MATERIALS FOR TREATING NEUROTOXICITY” (Cavion, Inc., priority 2019, published 2022)
